Patent US20180312493A1, “Antibiotic Compounds, Pharmaceutical Formulations Thereof And Methods And Uses Therefor” (Simon Fraser University, priority 2015, published 2018)
Converted amounts (≈) assume the structure as drawn. Like-named read-outs stand apart in the source and are kept apart here.

What was measured:
[1] = molecular target: T1, MRSA Pyk (Staphylococcus aureus, UniProt Q6GG09); assay: MRSA pyruvate kinase (PK) activity, continuous LDH-coupled assay; type: biochemical, methicillin resistant S. aureus (MRSA252)
T1 construct: made in house; host or cells: E. coli BL-21 (DE3)
Summary of the method: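 Activity monitored continuously as absorbance change at 340 nm from NADH oxidation via coupled lactate dehydrogenase, reactions started with 15 nM recombinant His-tagged PK (MRSA or human isoform) and run at 30° C for up to 5 min. Ki derived by varying inhibitor (0-400 nM) and PEP (2-20 mM) at 2 mM ADP; IC50 by four-parameter fitting.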

[2] = tested on: K. pneumoniae (C238); assay: In vitro susceptibility, broth microdilution (MIC); type: cell-based; conditions: Klebsiella pneumoniae; K. pneumoniae (C238); read-out: Antimicrobial activity (MIC) K. pneumoniae
Summary of the method: (§1)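 CLSI 2-fold serial broth microdilution; K. pneumoniae C238 grown in L-broth, S. aureus ATCC 29213 in Mueller Hinton broth, plates incubated 18–24 h at 37 °C. MIC taken as lowest concentration giving complete growth inhibition by OD600 versus compound-free wells, background-subtracted.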

[3] = tested on: S. aureus (ATCC29213); assay: In vitro susceptibility, broth microdilution (MIC); type: cell-based; conditions: Staphylococcus aureus
Summary of the method: as §1

[4] = tested on: VRE#2 (2010A); assay: In vitro susceptibility, broth microdilution (MIC); type: cell-based, vancomycin resistant Enterococci; conditions: read-out: Antimicrobial activity (MIC) VRE#2
Source text: (§2) Epidemic methicillin resistant S. aureus (MRSA) strain sequenced at the Sanger Centre (MRSA252, NRS71) was obtained from NARSA (Network on Antimicrobial Resistance in S. aureus). Methicillin sensitive S. aureus (ATCC 29213 and 25923), methicillin resistant S. aureus (ATCC BAA-1762), and Salmonella typhimurium (ATCC BAA-185) were obtained from ATCC, The Global Bioresource Center. Acinetobacter baumannii (ATCC 19606 and ATCC 17978), Klebsiella pneumonia (C238), vancomycin resistant Enterococci #2 (2010A) (VRE#2), MRSA (USA400, MW2) and Pseudomonas aeruginosa (PA0-1) were obtained from the laboratory of Dr B. B. Finlay at the University of British Columbia (Vancouver, Canada).
(§3) The antimicrobial activities of PK inhibitor candidates were determined using the 96-well microtiter standard 2-fold serial broth microdilution method as described by CLSI (formerly NCCLS) with the various gram-positive and gram-negative bacteria species mentioned above. Bacteria from a single colony were grown, overnight in either BHI Broth (VRE), mueller hinton broth (S. aureus 29213; MRSA USA400, A. baumannii 19606, MRSA BAA-1762) or L-broth (P. aeruginosa, S. typhimurium, K. pneumonia and A. baumannii 17978). Each compound was prepared in DMSO with 2-fold serial dilutions to give a final concentration of, 0.031 to 64 μg/ml. 10 μl of the compound solution was then added, in duplicate, to either, 190 μl of cation adjusted mueller hinton broth (CAMHB) or 190 μl CAMHB containing ˜2.5×10^5 CFU/ml of bacteria (final compound concentration 0.031 to 64 μg/ml). Culture plates were incubated for 18-24 h at 37° C., and optical density at 600 nm (OD600) was measured using a Benchmark Plus™ microplate spectrophotometer (Bio-Rad™). The absorbance control values for the series containing CAMHB and inhibitor were subtracted as background from the corresponding infected wells. Minimal inhibitory concentration (MIC) was defined as the lowest concentration of test compound leading to complete inhibition of cell growth in relation to compound-free control wells as determined by optical density. Vancomycin, methicillin and ciprofloxicin were used as reference compounds. All assays were run in triplicate or duplicate. Experiments were replicated at least twice to verify reproducibility using the above conditions.

[5] = tested on: MRSA (ATCC BAA-1762); assay: In vitro susceptibility, broth microdilution (MIC); type: cell-based, methicillin resistant S. aureus; conditions: Staphylococcus aureus, read-out: Antimicrobial activity (MIC) MRSA ATCC BAA1762
Source text: as §2, §3

[6] = S. aureus ATCC29213, 18-24 h, 37 C, read-out: Antimicrobial activity (MIC) S. aureus ATCC29213

T1 sequence (Q6GG09 whole entry): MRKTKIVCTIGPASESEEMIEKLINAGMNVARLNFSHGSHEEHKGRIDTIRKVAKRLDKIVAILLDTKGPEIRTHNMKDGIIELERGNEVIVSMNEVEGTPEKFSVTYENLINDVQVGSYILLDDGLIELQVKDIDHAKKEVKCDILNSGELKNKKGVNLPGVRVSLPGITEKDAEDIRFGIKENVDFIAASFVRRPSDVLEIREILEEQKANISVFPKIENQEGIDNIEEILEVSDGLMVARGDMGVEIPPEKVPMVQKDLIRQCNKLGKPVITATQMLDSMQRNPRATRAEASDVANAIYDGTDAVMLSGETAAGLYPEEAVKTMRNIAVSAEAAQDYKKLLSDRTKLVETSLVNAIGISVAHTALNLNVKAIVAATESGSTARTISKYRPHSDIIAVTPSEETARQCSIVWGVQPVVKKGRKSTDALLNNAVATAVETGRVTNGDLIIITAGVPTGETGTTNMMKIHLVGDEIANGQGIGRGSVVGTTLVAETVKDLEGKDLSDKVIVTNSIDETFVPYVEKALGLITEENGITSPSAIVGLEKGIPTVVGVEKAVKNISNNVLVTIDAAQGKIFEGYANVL

Row | Structure (SMILES) | IC50 [1] [nM] | MIC [2] [µg/mL] | MIC [3, 6] [µg/mL] | MIC ([4]; VRE#2 (2010A)) [µg/mL] | MIC ([5]; MRSA ATCC BAA-1762) [µg/mL] | MIC [4] [µg/mL] | MIC [5] [µg/mL] | MIC ([3]; ATCC29213, read-out: Antimicrobial activity (MIC) S. aureus ATCC29213) [µg/mL]
1 | O=C(NCCCCN1CCOCC1)c1c(/C=C/c2ccc(Cl)cc2)[nH]c2cc(Br)ccc12 [Compound 45, (E)-6-Bromo-2-(4-chlorostyryl)-N-(4-morpholinobutyl)-1H-indole-3-carboxamide] | < 100 | 32 (≈ 61.9 µM) | > 64 | – | – | – | – | –
2 | O=C(NCCCN1CCOCC1)c1c(/C=C/c2ccc(Cl)cc2)[nH]c2cc(Br)ccc12 [Compound 48, (E)-6-Bromo-2-(4-chlorostyryl)-N-(3-morpholinopropyl)-1H-indole-3-carboxamide] | – | > 64 | > 64 | – | – | – | – | –
3 | CCCC(=O)OC1CCN(CCNC(=O)c2c(/C=C/c3ccc(Cl)cc3)[nH]c3cc(Br)ccc23)CC1 [Compound 57, (E)-1-(2-(6-Bromo-2-(4-chlorostyryl)-1H-indole-3-carboxamido)ethyl)piperidin-4-yl Butyrate] | 100 to 1000 | – | > 64 | > 64 | – | – | – | –
4 | O=C1NCCn2c(cc3cc(Cl)ccc32)-c2[nH]c3cc(Br)ccc3c21 [Compound 74, 12-Bromo-2-chloro-7,8-dihydro-6H-[1,4]diazocino[1,8-a:7,6-b′]diindol-9(14H)-one] | < 100 | – | 32 (≈ 77.2 µM) | 64 (≈ 154 µM) | – | – | – | –
5 | O=C(NCCc1ccccn1)C(=O)c1c(/C=C/c2ccc(Cl)cc2)[nH]c2cc(Br)ccc12 [Compound 88, (E)-2-(6-bromo-2-(4-chlorostyryl)-1H-indol-3-yl)-2-oxo-N-(2-(pyridin-2-yl)ethyl)acetamide] | 100 to 1000 | > 64 | > 64 | – | – | – | – | –
6 | CNC(=O)C(=O)c1c(CCc2ccc(Cl)cc2)[nH]c2cc(Br)ccc12 [Compound 89, 2-(6-bromo-2-(4-chlorophenethyl)-1H-indol-3-yl)-N-methyl-2-oxoacetamide] | > 1000 | > 64 | > 64 | – | – | – | – | –
7 | CNC(=O)C(O)c1c(/C=C/c2ccc(Cl)cc2)[nH]c2cc(Br)ccc12 (stereo not drawn) [Compound 90, (E)-2-(6-bromo-2-(4-chlorostyryl)-1H-indol-3-yl)-2-hydroxy-N-methylacetamide] | 100 to 1000 | > 64 | > 64 | – | – | – | – | –
8 | CNC(=O)Cc1c(CCc2ccc(Cl)cc2)[nH]c2cc(Br)ccc12 [Compound 91, 2-(6-Bromo-2-(4-chlorophenethyl)-1H-indol-3-yl)-N-methylacetamide] | – | > 64 | > 64 | – | – | – | – | –
9 | Nc1c(/C=C/c2ccc(Cl)cc2)[nH]c2cc(Br)ccc12 [Compound 92, (E)-6-bromo-2-(4-chlorostyryl)-1H-indol-3-amine] | < 100 | – | 64 (≈ 184 µM) | 32 (≈ 92 µM) | – | – | – | –
10 | O=C(Nc1ccccc1)Nc1nc2cc(Br)ccc2s1 [Compound 99, 1-(5-bromobenzo[d]thiazol-2-yl)-3-phenylurea] | – | 8 (≈ 23 µM) | 1 (≈ 2.87 µM) | – | – | – | – | –
11 | O=C(Nc1ccccc1)Nc1nc2ccc(Br)cc2s1 [Compound 100, 1-(6-bromobenzo[d]thiazol-2-yl)-3-phenylurea] | – | > 64 | > 64 | – | – | – | – | –
12 | O=C(Cc1ccc(Cl)cc1)Nc1nc2ccc(Br)cc2s1 [Compound 109, N-(6-bromobenzo[d]thiazol-2-yl)-2-(4-chlorophenyl)acetamide] | – | > 64 | > 64 | – | – | – | – | –
13 | CN(C)CCn1c(-c2ccc(Cl)cc2)nc2[nH]c3cc(Br)ccc3c2c1=O [Compound 111, 7-bromo-2-(4-chlorophenyl)-3-(2-(dimethylamino)ethyl)-3H-pyrimido[4,5-b]indol-4(9H)-one] | – | > 64 | > 64 | – | – | – | – | –
14 | FC(F)(F)c1ccc2sc(/C=C/c3ccc(Cl)cc3)nc2c1 [Compound 115, (E)-2-(4-chlorostyryl)-5-(trifluoromethyl)benzo[d]thiazole] | – | > 64 | > 64 | – | – | – | – | –
15 | C[C@@H]1CN(CCNC(=O)c2c(-c3cc4cc(Cl)ccc4[nH]3)[nH]c3cc(Br)ccc23)[C@@H](C)CN1C [Compound 122, 6-Bromo-5′-chloro-N-(2-((2S,5R)-2,4,5-trimethylpiperazin-1-yl)ethyl)-1H,1′H-[2,2′-biindole]-3-carboxamide] | < 100 | – | 8 (≈ 14.7 µM) | 8 (≈ 14.7 µM) | 8 (≈ 14.7 µM) | – | – | –
16 | COCCC1CCCN1CCNC(=O)c1c(-c2cc3cc(Cl)ccc3[nH]2)[nH]c2cc(Br)ccc12 (stereo not drawn) [Compound 123, 6-Bromo-5′-chloro-N-(2-(2-(2-methoxyethyl)pyrrolidin-1-yl)ethyl)-1H,1′H-[2,2′-biindole]-3-carboxamide] | < 100 | – | 8 (≈ 14.7 µM) | 8 (≈ 14.7 µM) | 8 (≈ 14.7 µM) | – | – | –
17 | COCCN1CCN(CCNC(=O)c2c(-c3cc4cc(Cl)ccc4[nH]3)[nH]c3cc(Br)ccc23)CC1 [Compound 129, 6-bromo-5′-chloro-N-(2-(4-(2-methoxyethyl)piperazin-1-yl)ethyl)-1H,1′H-2,2′-biindole-3-carboxamide] | < 100 | – | 16 (≈ 28.6 µM) | 16 (≈ 28.6 µM) | 16 (≈ 28.6 µM) | – | – | –
18 | CN1CCN(CCNC(=O)c2c(-c3cc4cc(Cl)ccc4[nH]3)[nH]c3cc(Br)ccc23)C(c2ccccc2)C1 (stereo not drawn) [Compound 139, 6-Bromo-5′-chloro-N-(2-(4-methyl-2-phenylpiperazin-1-yl)ethyl)-1H,1′H-[2,2′-biindole]-3-carboxamide] | < 100 | – | 4 (≈ 6.77 µM) | 8 (≈ 13.5 µM) | 8 (≈ 13.5 µM) | – | – | –
19 | COc1cc2[nH]c(-c3cc4ccc(Br)cc4[nH]3)cc2cc1Cl [Compound 140, 6′-Bromo-5-chloro-6-methoxy-1H,1′H-2,2′-biindole] | – | > 64 | > 64 | – | – | – | – | –
20 | O=C(Nc1ccc(Cl)cc1)Nc1nc2cc(Br)ccc2s1 [Compound 141, 1-(5-bromobenzo[d]thiazol-2-yl)-3-(4-chlorophenyl)urea] | – | – | 0.5 (≈ 1.31 µM) | – | 0.5 (≈ 1.31 µM) | – | – | –
21 | O=C(NCCC[n+]1ccccc1)c1c(-c2cc3cc(Cl)ccc3[nH]2)[nH]c2cc(Br)ccc12 [Compound 144, 1-(3-(6-bromo-5′-chloro-1H,1′H-[2,2′-biindole]-3-carboxamido)propyl)pyridin-1-ium] | < 100 | – | 8 | 16 | 16 | – | – | –
22 | Cc1ccc2sc(NC(=O)Nc3ccc(Cl)cc3)nc2c1 [Compound 170, 1-(4-chlorophenyl)-3-(5-methylbenzo[d]thiazol-2-yl)urea] | – | – | 4 (≈ 12.6 µM) | – | 2 (≈ 6.29 µM) | – | – | –
23 | CC(=O)Nc1nc2cc(Br)ccc2s1 [Compound 175, N-(5-bromobenzo[d]thiazol-2-yl)acetamide] | – | – | 32 (≈ 118 µM) | 32 (≈ 118 µM) | 16 (≈ 59 µM) | – | – | –
24 | COC(=O)c1c(NS(=O)(=O)c2ccc(Cl)cc2)[nH]c2cc(Br)ccc12 [Compound 182, Methyl 6-bromo-2-((4-chlorophenyl)sulfonamido)-1H-indole-3-carboxylate] | – | – | 8 (≈ 18 µM) | 64 (≈ 144 µM) | 0.5 (≈ 1.13 µM) | – | – | –
25 | CN(C)CCc1c(-c2nc3ccc(Cl)cc3o2)[nH]c2cc(Br)ccc12 [Compound 203, 2-(6-Bromo-2-(6-chlorobenzo[d]oxazol-2-yl)-1H-indol-3-yl)-N,N-dimethylethan-1-amine] | < 100 | – | – | – | – | 16 (≈ 38.2 µM) | 8 (≈ 19.1 µM) | 8 (≈ 19.1 µM)
26 | CC(C)(C)OC(=O)N1CCN(C(=O)c2c(-c3cc4cc(Cl)ccc4[nH]3)[nH]c3cc(Br)ccc23)C(C(=O)O)C1 (stereo not drawn) [Compound 224, 1-(6-bromo-5′-chloro-1H,1′H-[2,2′-biindole]-3-carbonyl)-4-(tert-butoxycarbonyl)piperazine-2-carboxylic Acid] | < 100 | – | 32 (≈ 53.2 µM) | 32 (≈ 53.2 µM) | 32 (≈ 53.2 µM) | – | – | –
